Test results taken from patent publication EP0531370B1, “INHIBITION OF VIRAL INFECTION” (priority 1990, dated 1991).
Like-named read-outs stand apart in the source and are kept apart here.

Tests used:
[1] = test system: retroviral vector pWET-TAC ψ2; experiment: Infection of NIH-3T3 cells by retroviral vector pWeT-TAC ψ2, count of G418-resistant colonies; type: cell-based; conditions: for inhibition at 1000 µM / activity at 1000 µM: 1mM; for activity at 1000 µM / activity at 3000 µM / activity at 2000 µM: read-out: % of control colonies counted; for inhibition of G418-resistant colony formation (in words): concentrations of Table 1 (1mM to 3mM); for inhibition at 3000 µM / activity at 3000 µM: 3mM; for inhibition at 2000 µM / activity at 2000 µM: 2mM
[2] = test system: integration of foreign DNA into the genome; conditions: calcium phosphate mediated DNA transfection; cited from earlier work
[3] = test system: monocyte adapted HIV-1; experiment: microbe, parasite or virus in culture; type: cell-based; conditions: for minimal effective concentration: Human immunodeficiency virus 1, Monocyte, 336 h, read-out: Minimum Antiviral Concentration; for Therapeutic Index: PBMC's with M-virus, * partial inhibition only; for virus production (P24 antigen level in supernatant): virus M and PBMC's, Day 14, all concentrations tested
[4] = test system: MPSV^28; experiment: Dot-blot analysis of high molecular weight DNA of HL-60 cells after infection with MPSV^28; type: cell-based, murine myeloproliferative sarcoma virus; conditions: 1.5mM, 72 hours after infection
Description: In this case cells were pretreated with 0.4% DMSO and […] polybrene for 24 hours. At the time of infection this medium was removed and fresh medium containing the same concentration of DMSO and polybrene, plus 5 x 10^5 c.f.u. of the vector were added to 10^7 cells either in the presence (+) or absence (-) of the inhibitor (5 x 10^6 cells for each condition). 24 hours after infection the medium was removed and cells were placed in fresh medium containing no DMSO or polybrene. Cells were incubated in this medium for another 48 hours before being harvested (approximately 2 x 10^7 cells with, and 2 x 10^7 without the inhibitor).

[5] = test system: MPSV^28; experiment: Southern hybridisation of genomic DNA of NIH/3T3 cells after infection with MPSV^28; type: cell-based, murine myeloproliferative sarcoma virus; conditions: 2mM, most obvious at 24 and 48 hours after infection
[6] = in vitro; conditions: human, t-cell line
[7] = in vitro; conditions: human, pbmc
[8] = test system: T-cell adapted HIV-1; experiment: microbe, parasite or virus in culture; type: cell-based; conditions: for minimal effective concentration: Human immunodeficiency virus 1, T-cell, 336 h, read-out: Minimum Antiviral Concentration; for Therapeutic Index: T-Cell Line with T-virus; for antiviral activity (P24 antigen level in supernatant): virus T and the T-cell line, Day 14
[9] = test system: monocyte adapted laboratory strain of HIV; type: cell-based, HIV-1; conditions: monocyte line, Day 7
[10] = test system: continuous human T-cell line; experiment: Cell toxicity assay, trypan blue exclusion (Example 6), T-cell line; conditions: 150µM, Days 1, 6 and 10
[11] = test system: AZT-resistant HIV isolate; type: cell-based, HIV-1
[12] = test system: phytohaemagglutinin (PHA) stimulated peripheral blood mononuclear cells (PBMC); experiment: Cell toxicity assay, trypan blue exclusion (Example 6), PBMC; conditions: 150µM; PBMC's; Days 1, 6 and 10
[13] = in vitro; conditions: human
[14] = test system: vaccinia virus; conditions: BSC40 cells, 24 hours at 37°C, cited from earlier work
[15] = NIH3T3, NIH-3T3, G418-resistant colonies, read-out: % inhibition achieved
[16] = NIH3T3, NIH-3T3, G418-resistant colonies

Question: With `NC(=O)c1cccc(NC=O)c1` [3-N-formylaminobenzamide] as the compound, how does the inhibition at 1000 µM [1, 15] read?
Answer: 64%

Question: And the activity at 1000 µM [1, 16]?
Answer: 36%

Question: What about the “inhibition of G418-resistant colony formation (in words)” value (shortened to “inhibition … (in words)”) [1] of the same compound?
Answer: even greater inhibition

Question: For `NC(=O)c1cccc(N)c1` [3-aminobenzamide], which “inhibition of the formation of G418 resistant colonies” value ([1]; 1mM inhibitor) is on record?
Answer: small degree of inhibition

Question: What about the inhibition at 3000 µM [1, 15] of the same compound?
Answer: 45%

Question: What about the activity at 3000 µM [1, 16] of the same compound?
Answer: 55%

Question: What about the inhibition at 3000 µM ([1]; NIH3T3, read-out: inhibition of the formation of G418 resistant colonies) of the same compound?
Answer: 50%

Question: And the inhibition at 5000 µM ([1]; NIH3T3, 5mM, read-out: inhibition of the formation of G418 resistant colonies)?
Answer: 60%

Question: And the “inhibition … (in words)” value [1]?
Answer: significant degree of inhibition

Question: And the “integration of foreign DNA into the genome” value [2]?
Answer: blocked

Question: Which inhibition at 3000 µM [1, 15] does the source give for `Nc1cccc(C(=O)O)c1` [3-aminobenzoic acid, reference compound] here?
Answer: 10%

Question: And the activity at 3000 µM [1, 16]?
Answer: 90%

Question: And the “inhibition … (in words)” value [1]?
Answer: did not inhibit

Question: With `COc1cccc(C(N)=O)c1` [3-methoxybenzamide] as the compound, how does the minimal effective concentration [3] read?
Answer: 0.19 µM

Question: What about the “Therapeutic Index” value [3] of the same compound?
Answer: >15 800*

Question: What about the “virus production (P24 antigen level in supernatant)” value [3] of the same compound?
Answer: partially inhibited virus production

Question: And the “appearance of the proviral DNA” value [4]?
Answer: inhibited

Question: What about the “appearance of complete proviral DNA in the genomic DNA” value [5] of the same compound?
Answer: inhibited

Question: And the inhibition at 2000 µM [1, 15]?
Answer: 82%

Question: What about the activity at 2000 µM [1, 16] of the same compound?
Answer: 18%

Question: What about the “inhibition … (in words)” value [1] of the same compound?
Answer: very effective

Question: What about the MNTC [6] of the same compound?
Answer: 3 mM

Question: And the “integration of foreign DNA into the genome” value [2]?
Answer: blocked

Question: And the MNTC [7]?
Answer: 3 mM

Question: What about the minimal effective concentration [8] of the same compound?
Answer: 0.19 µM

Question: What about the “Therapeutic Index” value [8] of the same compound?
Answer: >15 800

Question: And the “antiviral activity (P24 antigen level in supernatant)” value [8]?
Answer: showed particular activity

Question: Which results are given for `NC(=O)c1ccc(N)cc1` [4-aminobenzamide, reference compound]?
Answer: inhibition at 3000 µM [1, 15]: 12%; activity at 3000 µM [1, 16]: 88%; inhibition of G418-resistant colony formation (in words) [1]: did not inhibit

Question: For `NC(=O)c1ccc(NC=O)cc1` [4-formylaminobenzamide, reference compound], which inhibition at 1000 µM [1, 15] is on record?
Answer: 8%

Question: What about the activity at 1000 µM [1, 16] of the same compound?
Answer: 92%

Question: And the “inhibition … (in words)” value [1]?
Answer: did not inhibit

Question: Which results are given for `COc1ccc(C(N)=O)cc1` [4-methoxybenzamide, reference compound]?
Answer: inhibition at 2000 µM [1, 15]: 15%; activity at 2000 µM [1, 16]: 85%; inhibition of G418-resistant colony formation (in words) [1]: did not inhibit

Question: Which results are given for `Cc1cn([C@H]2C[C@H](N=[N+]=[N-])[C@@H](CO)O2)c(=O)[nH]c1=O` [AZT, 3'-azido-2',3'-dideoxythymidine, reference compound]?
Answer: minimal effective concentration [3]: 0.007 µM; Therapeutic Index [3]: 142 900; virus production (P24 antigen level in supernatant) [3]: inhibited virus with a good dose response; antiviral activity (supernatant p24 antigen) ([9]; 0.15µM): significant antiviral activity; toxicity (viable counts) [10]: non-toxic; virus inhibition (supernatant p24 antigen) [11]: inhibited completely; virus suppression (supernatant p24 antigen) [11]: did not suppress the virus; MNTC [6]: 1 mM; toxicity (viable counts) [12]: non-toxic; MNTC [7]: 1 mM; minimal effective concentration [8]: 0.007 µM; Therapeutic Index [8]: 142 900; antiviral activity (P24 antigen level in supernatant) [8]: inhibited virus with a good dose response

Question: Which results are given for `O=C1NC(CCCl)Oc2ccccc21` (stereo not drawn) [Chlorthenoxazine, chlorthenoxazine]?
Answer: viability at 336 h [13]: > 50%; antiviral activity (supernatant p24 antigen) ([9]; concentrations tested 150 to 0.015µM): active and has a clear dose response; antiviral activity (supernatant p24 antigen) ([11]; 0.15µM, PBMC's, Day 7, no smooth dose response): possibly active

Question: For `NC(=O)c1cccnc1` [nicotinamide], which viral replication ([14]; 20mM) is on record?
Answer: affected

Question: What about the “decrease of viral replication” value ([14]; 60mM) of the same compound?
Answer: greater than 99%
